The experiment has as its system Jurkat NF-kB reporter, TCR-induced, luciferase luminescence. As to the kind of experiment: T-cell NF-kB luciferase reporter inhibition – Jurkat cells, luminescence, dose response (AID 489035). Background: Reporter assays use an easily measured gene product as a stand-in for the process of interest.

Here are results for 34 molecules from PubChem BioAssay AID489035 (Sanford-Burnham Center for Chemical Genomics, 2010).

Active and inactive are the calls of the source. No rule for the calls is given here.

Usually IC50 stands for the midpoint of a concentration-inhibition curve. As to `CCN(CC)c1ccc(/C=N/NC(=O)c2cccc(S(=O)(=O)Nc3ccccc3OC)c2)c(O)c1`, the IC50 is 3.37 µM. The result for `COc1ccc(OC)c(-c2nnc3n2N=C(c2ccc(OC)c(OC)c2)CS3)c1` reads 9.88 µM. The result for `Cc1ccc2c(c1)sc(-c1ccc(N(C)C)cc1)[n+]2C` reads > 80 µM (inactive). The result for `COc1ccc(OC)c(CCNC(=O)Cn2nc(C)c3c(C)n(-c4ccc(C)cc4)nc3c2=O)c1` reads 7.63 µM; that for `Cc1cc(C)nc(SCC(=O)Nc2ccnc3ccccc23)n1`, > 80 µM (inactive). `CCOc1ccc(S(=O)(=O)NCc2ccccn2)cc1NC(=O)c1ccccc1`: the IC50 was > 80 µM (inactive). `Cc1nc(SCC(=O)Nc2nc3ccccc3s2)c(C#N)c(C)c1C`: the concentration for half-maximal inhibition (IC50) is 0.75 µM. With `Cc1ccc(-c2cc(C(F)F)n3ncc(C(=O)N4CCc5ccccc54)c3n2)cc1`, the IC50 is > 80 µM (inactive). Regarding `C/C=C/COC(=O)c1[nH]c2c(c1C)C(=O)CC(c1ccco1)C2` (centres undefined), the IC50 was > 80 µM (inactive). In the case of `CC[C@@]1(O)C(=O)OCc2c1cc1n(c2=O)Cc2cc3c(CN(C)C)c(O)ccc3nc2-1`, the IC50 is 0.2 µM.

For `Clc1cccc(Cl)c1OCCOCCNCc1ccccc1`, the IC50 was > 80 µM (inactive).

As to `CCCc1cc(C(=O)N/N=C/c2ccc(CC)s2)c2ccccc2n1`, the IC50 was 13 µM. For `O=C1CC(c2cc(Br)ccc2F)c2cc3c(cc2N1)CCC3` (centres undefined), the half-inhibitory concentration (IC50) is 15.6 µM. The result for `COc1cc2c(c(OC)c1OC)-c1ccc(OC)c(=O)cc1[C@@H](N(C)CC#CCO)CC2` reads > 80 µM (inactive). With `CCN(c1ccccc1)S(=O)(=O)c1ccc(C(=O)NC2CCN(Cc3ccccc3)CC2)cc1` the figure was 33 µM (inactive). The result for `CCCCCCCOc1ccc(OC(=O)c2cccnc2)cc1` reads > 80 µM (inactive); that for `COc1cc2c(c(OC)c1OC)-c1ccc(OC)c(=O)cc1[C@@H](NC(C)=O)CC2`, > 80 µM (inactive). `CCC(O)C1CCN(C(=O)c2cc(COc3ccc4ncccc4c3)on2)CC1` (centres undefined): the IC50 was 0.69 µM.

As for `COc1ccc(Nc2nc3cc(C)ccc3cc2C#N)c(OC)c1`, the IC50 is > 80 µM (inactive).

As to `CC(C)Cn1c(N)c(C(=O)CSc2ccc3c(c2)OCCO3)c(=O)n(C)c1=O`, the IC50 is less than 0.16 µM. As to `COc1cccc(-c2cc(=O)c3cc(NC(=O)c4ccc(N(C)C)cc4)ccc3[nH]2)c1`, the IC50 is 6.22 µM. The result for `Cc1ccc(NC(=O)Nc2ccnc(-c3cccnc3)n2)cc1` reads 0.84 µM; that for `Cc1nn(C)c(C)c1CN(Cc1nc(CCC(C)C)no1)C(C)C`, > 80 µM (inactive). On to `CCn1ncc(C2=NOC(C(=O)NCc3ccc(Cl)cc3)C2)c1C` (centres undefined), for which the IC50 is > 80 µM (inactive).

As to `COc1ccc(OC)c(C2CC(=O)c3c([nH]c(C(=O)OC(C)C)c3C)C2)c1` (centres undefined), the IC50 is > 80 µM (inactive). Turning to `CCC(C)C(=O)N[C@@H](c1ccccc1)[C@@H](O)C(=O)O[C@H]1C[C@@]2(O)[C@@H](OC(=O)c3ccccc3)C3[C@](C)(C(=O)[C@H](OC(C)=O)C(=C1C)C2(C)C)[C@@H](O)C[C@H]1OC[C@@]31OC(C)=O` (some centres undefined), the IC50 was > 80 µM (inactive). The result for `Cc1ccccc1NC1=C/C(=N\S(=O)(=O)c2cccs2)c2ccccc2C1=O` reads 1.25 µM; that for `Cc1cccc(N2CCN(C(=O)c3ccc(CS(=O)(=O)c4ccccc4C)o3)CC2C)c1` (centres undefined), 9.62 µM; that for `COc1cc(Nc2ccc(C)cc2)c([N+](=O)[O-])nc1[N+](=O)[O-]`, > 80 µM (inactive). Take `COC(=O)c1nn(-c2ccc3c(c2)CCN3C(C)=O)cc1O`: the IC50 was 1.14 µM. In the case of `O=C(c1cc(-c2ccncc2)nc2c(Cl)cccc12)N1CCN(c2ccccc2F)CC1`, the IC50 was > 80 µM (inactive). With `CC(=O)N(C)C1=C(N2CCOCC2)C(=O)c2ccccc2C1=O` the figure was 9.87 µM; with `Cc1noc(C)c1COc1cccc(C(=O)OCC(=O)N2CC(=O)Nc3ccccc32)c1`, > 80 µM (inactive). With `CCCCCOC(=O)c1[nH]c2c(c1C)C(=O)CC(c1ccco1)C2` (centres undefined) the figure was > 80 µM (inactive).
